Data published in ChEMBL document CHEMBL5033994, “Fragment-Based Optimization of Dihydropyrazino-Benzimidazolones as Metabotropic Glutamate Receptor-2 Positive Allosteric Modulators against Migraine” (J Med Chem, 2021).
≈ marks a conversion by molar mass, not a printed value.

Assays:
[1] = physchem; conditions: buffer, pH 7.4
[2] = in vivo; conditions: Wistar, rat, iv, 3 mg/kg
[3] = in vivo; conditions: Wistar, rat, iv, 3 mg/kg; remark: listed apart in the source
[4] = physchem; conditions: buffer, pH 7.4; remark: listed apart in the source
[5] = in vivo; conditions: Wistar, rat, brain/plasma, po, 10 mg/kg
[6] = in vivo; conditions: Wistar, rat, po, 10 mg/kg
[7] = in vivo; conditions: Wistar, rat, po, 10 mg/kg; remark: listed apart in the source
[8] = in vivo; conditions: Wistar, rat, iv, 3 mg/kg; remark: listed apart in the source
[9] = in vivo; conditions: Wistar, rat, po, 10 mg/kg; remark: listed apart in the source
[10] = in vivo; conditions: Wistar, rat, po, 10 mg/kg; remark: listed apart in the source
[11] = in vivo; conditions: Wistar, rat, po, 10 mg/kg; remark: listed apart in the source

`O=C1c2nc3cccc(C(F)(F)F)c3n2CCN1CC1CCC1` showed a solubility [1] of 43 µg/mL (≈ 133 µM), a half-life [2] of 15.6 min and an AUC(0-t) at 2 h [3] of 833 ng·h/mL. For the same molecule, the logD [4] was 3.09, the Kp [5] was 1.02 and the Cmax [6] was 1360 ng/mL. The bioavailability [7] was 67%, the clearance [8] was 60 mL/min/kg and the Tmax [9] was 30 min. For the same molecule, the AUC(0-t) at 5 h [10] was 1820 ng·h/mL and the half-life [11] was 54.6 min.
